The NIST ThermoML archive (doi:10.1021/je800110r)
Where “and” joins values, the source holds several entries; their conditions need not be identical. Equal values may be shown once.

Conditions: 313.14 K, Liquid, Vibrating tube method

CCCCCCCCCC [decane]
Conditions | mass density
4519 kPa | 718.5 kg/m3
4530 kPa | 718.5 kg/m3
4546 kPa | 718.5 kg/m3
4557 kPa | 718.5 kg/m3
4572 kPa | 718.5 kg/m3
4582 kPa | 718.5 kg/m3
4599 kPa | 718.5 kg/m3
4610 kPa | 718.6 kg/m3
4621 kPa | 718.5 kg/m3
4637 kPa | 718.6 kg/m3
4652 kPa | 718.6 kg/m3
4667 kPa | 718.6 kg/m3
4685 kPa | 718.6 kg/m3
4705 kPa | 718.7 kg/m3
4723 kPa | 718.6 kg/m3
4741 kPa | 718.8 kg/m3
4755 kPa | 718.6 kg/m3
4774 kPa | 718.6 kg/m3
4792 kPa | 718.7 kg/m3
4814 kPa | 718.7 kg/m3
4825 kPa | 718.7 kg/m3
4842 kPa | 718.7 kg/m3
4859 kPa | 718.8 kg/m3
4873 kPa | 718.8 kg/m3
4891 kPa | 718.7 kg/m3
4913 kPa | 718.8 kg/m3
4930 kPa | 718.8 kg/m3
4945 kPa | 718.8 kg/m3
4968 kPa | 718.8 kg/m3
4991 kPa | 718.9 kg/m3
5004 kPa | 718.8 kg/m3
5027 kPa | 718.9 kg/m3
5042 kPa | 718.9 kg/m3
5063 kPa | 718.9 kg/m3
5079 kPa | 719 kg/m3
5092 kPa | 719 kg/m3
5111 kPa | 719 kg/m3
5130 kPa | 719 kg/m3
5149 kPa | 719 kg/m3
5165 kPa | 718.9 kg/m3
5185 kPa | 719 kg/m3
5207 kPa | 719 kg/m3
5230 kPa | 719.2 kg/m3
5251 kPa | 719.2 kg/m3
5270 kPa | 719.1 kg/m3
5300 kPa | 719.2 kg/m3
5315 kPa | 719.3 kg/m3
5316 kPa | 719.2 kg/m3
5318 kPa | 719.2 kg/m3
5320 kPa | 719.2 kg/m3
5321 kPa | 719.1 kg/m3 and 719.3 kg/m3
5322 kPa | 719.2 kg/m3
5338 kPa | 719.1 kg/m3
5355 kPa | 719.1 kg/m3
5373 kPa | 719.2 kg/m3
5385 kPa | 719.3 kg/m3
5399 kPa | 719.3 kg/m3
5414 kPa | 719.1 kg/m3
5430 kPa | 719.2 kg/m3
5444 kPa | 719.2 kg/m3
5461 kPa | 719.2 kg/m3
5478 kPa | 719.2 kg/m3
5498 kPa | 719.3 kg/m3
5515 kPa | 719.3 kg/m3
5537 kPa | 719.4 kg/m3
5552 kPa | 719.4 kg/m3
5568 kPa | 719.4 kg/m3
5586 kPa | 719.4 kg/m3
5603 kPa | 719.4 kg/m3
5622 kPa | 719.4 kg/m3
5636 kPa | 719.4 kg/m3
5655 kPa | 719.4 kg/m3
5671 kPa | 719.5 kg/m3
5686 kPa | 719.4 kg/m3
5705 kPa | 719.4 kg/m3
5721 kPa | 719.5 kg/m3
5739 kPa | 719.5 kg/m3
5753 kPa | 719.5 kg/m3
5771 kPa | 719.5 kg/m3
5788 kPa | 719.6 kg/m3
5803 kPa | 719.5 kg/m3
5819 kPa | 719.6 kg/m3
5838 kPa | 719.5 kg/m3
5852 kPa | 719.6 kg/m3
5871 kPa | 719.7 kg/m3
5889 kPa | 719.6 kg/m3
5906 kPa | 719.7 kg/m3
5927 kPa | 719.6 kg/m3
5946 kPa | 719.7 kg/m3
5963 kPa | 719.6 kg/m3
5982 kPa | 719.7 kg/m3
6002 kPa | 719.7 kg/m3
6019 kPa | 719.8 kg/m3
6042 kPa | 719.8 kg/m3
6064 kPa | 719.8 kg/m3
6084 kPa | 719.8 kg/m3
6100 kPa | 719.8 kg/m3
6120 kPa | 719.9 kg/m3
6140 kPa | 719.8 kg/m3
6162 kPa | 719.8 kg/m3
6180 kPa | 719.9 kg/m3
6198 kPa | 719.9 kg/m3
6202 kPa | 719.8 kg/m3
6204 kPa | 719.9 kg/m3
6213 kPa | 719.9 kg/m3
6230 kPa | 719.9 kg/m3
6246 kPa | 719.9 kg/m3
6262 kPa | 720 kg/m3
6278 kPa | 719.9 kg/m3
6295 kPa | 720 kg/m3
6313 kPa | 720 kg/m3
6332 kPa | 720 kg/m3
6353 kPa | 720.1 kg/m3
6367 kPa | 720 kg/m3
6383 kPa | 720 kg/m3
6398 kPa | 720.1 kg/m3
6420 kPa | 720.1 kg/m3
6438 kPa | 720.1 kg/m3
6453 kPa | 720 kg/m3
6472 kPa | 720.1 kg/m3
6484 kPa | 720 kg/m3
6500 kPa | 720.1 kg/m3
6518 kPa | 720.1 kg/m3
6531 kPa | 720.1 kg/m3
6545 kPa | 720.1 kg/m3
6559 kPa | 720.1 kg/m3
6575 kPa | 720.1 kg/m3
6586 kPa | 720.2 kg/m3
6599 kPa | 720.3 kg/m3
6611 kPa | 720.2 kg/m3
6626 kPa | 720.1 kg/m3
6643 kPa | 720.3 kg/m3
6658 kPa | 720.3 kg/m3
6675 kPa | 720.3 kg/m3
6689 kPa | 720.2 kg/m3
6708 kPa | 720.2 kg/m3
6723 kPa | 720.2 kg/m3
6742 kPa | 720.4 kg/m3
6755 kPa | 720.3 kg/m3
6767 kPa | 720.4 kg/m3
6785 kPa | 720.4 kg/m3
6815 kPa | 720.3 kg/m3
6833 kPa | 720.3 kg/m3
6865 kPa | 720.4 kg/m3
6886 kPa | 720.5 kg/m3
6901 kPa | 720.4 kg/m3
6948 kPa | 720.6 kg/m3
6966 kPa | 720.6 kg/m3
6975 kPa | 720.6 kg/m3
6989 kPa | 720.6 kg/m3
7007 kPa | 720.5 kg/m3
7019 kPa | 720.6 kg/m3
7031 kPa | 720.6 kg/m3
7045 kPa | 720.6 kg/m3
7061 kPa | 720.6 kg/m3
7077 kPa | 720.6 kg/m3
7089 kPa | 720.7 kg/m3
7101 kPa | 720.6 kg/m3
7118 kPa | 720.6 kg/m3
7136 kPa | 720.7 kg/m3
7149 kPa | 720.6 kg/m3
7165 kPa | 720.7 kg/m3
7180 kPa | 720.7 kg/m3
7195 kPa | 720.7 kg/m3
7209 kPa | 720.7 kg/m3
7226 kPa | 720.7 kg/m3
7241 kPa | 720.8 kg/m3
7252 kPa | 720.6 kg/m3
7264 kPa | 720.7 kg/m3
7279 kPa | 720.8 kg/m3
7292 kPa | 720.8 kg/m3
7306 kPa | 720.8 kg/m3
7317 kPa | 720.7 kg/m3
7332 kPa | 720.8 kg/m3
7347 kPa | 720.8 kg/m3
7360 kPa | 720.9 kg/m3
7375 kPa | 720.8 kg/m3
7392 kPa | 720.9 kg/m3
7410 kPa | 720.8 kg/m3
7423 kPa | 720.9 kg/m3
7441 kPa | 720.8 kg/m3
7455 kPa | 720.9 kg/m3
7473 kPa | 720.9 kg/m3
7487 kPa | 721 kg/m3
7507 kPa | 721 kg/m3
7523 kPa | 721 kg/m3
7537 kPa | 720.9 kg/m3
7553 kPa | 720.9 kg/m3
7569 kPa | 721.1 kg/m3
7590 kPa | 721 kg/m3
7605 kPa | 721 kg/m3
7621 kPa | 721.1 kg/m3
7635 kPa | 721.1 kg/m3
7652 kPa | 721.1 kg/m3
7666 kPa | 721.1 kg/m3
7683 kPa | 721.1 kg/m3
7702 kPa | 721 kg/m3
7717 kPa | 721.1 kg/m3
7731 kPa | 721.2 kg/m3
7750 kPa | 721.2 kg/m3
7768 kPa | 721.2 kg/m3
7782 kPa | 721.1 kg/m3
7805 kPa | 721.2 kg/m3
7820 kPa | 721.3 kg/m3
7835 kPa | 721.2 kg/m3
7851 kPa | 721.3 kg/m3
7873 kPa | 721.2 kg/m3
7890 kPa | 721.3 kg/m3
7910 kPa | 721.2 kg/m3
7922 kPa | 721.3 kg/m3
7941 kPa | 721.2 kg/m3
7959 kPa | 721.4 kg/m3
8144 kPa | 721.4 kg/m3
8162 kPa | 721.4 kg/m3
8174 kPa | 721.5 kg/m3
8184 kPa | 721.6 kg/m3
8194 kPa | 721.6 kg/m3
8205 kPa | 721.5 kg/m3
8220 kPa | 721.6 kg/m3
8237 kPa | 721.5 kg/m3
8248 kPa | 721.5 kg/m3
8262 kPa | 721.5 kg/m3
8277 kPa | 721.6 kg/m3
8293 kPa | 721.5 kg/m3
8309 kPa | 721.7 kg/m3
8321 kPa | 721.6 kg/m3
8338 kPa | 721.7 kg/m3
8352 kPa | 721.6 kg/m3
8364 kPa | 721.7 kg/m3
8383 kPa | 721.6 kg/m3
8395 kPa | 721.7 kg/m3
8410 kPa | 721.7 kg/m3
8421 kPa | 721.7 kg/m3
8435 kPa | 721.8 kg/m3
8448 kPa | 721.8 kg/m3
8462 kPa | 721.7 kg/m3
8482 kPa | 721.9 kg/m3
8494 kPa | 721.8 kg/m3
8514 kPa | 721.7 kg/m3
8524 kPa | 721.8 kg/m3
8544 kPa | 721.9 kg/m3
8559 kPa | 721.8 kg/m3
8579 kPa | 721.8 kg/m3
8592 kPa | 721.8 kg/m3
8614 kPa | 721.8 kg/m3
8629 kPa | 721.8 kg/m3
8680 kPa | 721.9 kg/m3
8691 kPa | 722.1 kg/m3
8725 kPa | 722.1 kg/m3
8740 kPa | 722 kg/m3
8754 kPa | 722 kg/m3
8773 kPa | 722 kg/m3
8791 kPa | 722 kg/m3
8807 kPa | 722.1 kg/m3
8821 kPa | 722 kg/m3
8835 kPa | 721.9 kg/m3
8858 kPa | 722.1 kg/m3
8876 kPa | 722.2 kg/m3
8897 kPa | 722.1 kg/m3
8911 kPa | 722.1 kg/m3
8930 kPa | 722.1 kg/m3
8944 kPa | 722 kg/m3
8964 kPa | 722 kg/m3
8980 kPa | 722.1 kg/m3
9004 kPa | 722.1 kg/m3
9023 kPa | 722.2 kg/m3
9038 kPa | 722.2 kg/m3
9053 kPa | 722.2 kg/m3
9075 kPa | 722.3 kg/m3
9092 kPa | 722.2 kg/m3
9106 kPa | 722.2 kg/m3
9121 kPa | 722.3 kg/m3
9138 kPa | 722.3 kg/m3
